# Results as given in patent US20250057849A1, “ANTIVIRAL COMPOSITION COMPRISING NUCLEOSIDE ANALOGUES DERIVED FROM NUCLEIC ACID AND PHARMACEUTICALLY ACCEPTABLE SALT THEREOF” (CJ CheilJedang Corporation, priority 2021, published 2025).
# Like-named read-outs stand apart in the source and are kept apart here.
# Legend:
# CPV = CPV infection inhibition in MDCK cells (qPCR); assay type: cell-based, Canine Parvovirus; conditions: for SI (selectivity index), CPV: CC50/IC50; for IC50: 96 h, MDCK cells, 200 TCID50/well CPV, after 4 days, read-out: CPV infection inhibition concentration IC50 (Table 10)
# Experimental: For the isolated DNA, using CPV-specific primers (F-[…] , R-[…] ) and realtime RT-qPCR experimental method (95° C., 5 minutes 1 cycle, 95° C., 10 seconds, 60° C., 30 seconds, 40 cycles), the antiviral efficacy of the materials was confirmed.
# [1] = Cytotoxicity, MDBK cell tests; conditions: bovine, MDBK cells
# PCV2 = PCV2 infection inhibition in PK15 cells (qPCR); assay type: cell-based, Porcine Circovirus Type 2; conditions: for SI (selectivity index), PCV2: CC50/IC50; for IC50: Porcine circovirus 2, PK-15, 96 h, PK15 cells, 200 TCID50/well PCV2, after 4 days, read-out: PCV2 infection inhibition concentration IC50
# Experimental: For the isolated DNA, using PCV2-specific primers (F-[…] , R-[…] ) and realtime RT-qPCR experimental method (95° C., 30 seconds 1 cycle, 95° C., 20 seconds, 56° C., 60 seconds 40 cycles), the antiviral efficacy of the materials was verified.
# [2] = test system: PRRSV (NA type, VR-2332 strain); experiment: PRRSV infection inhibition in Marc-145 cells (immunofluorescence staining); assay type: cell-based, Porcine Reproductive and Respiratory Syndrome virus; conditions: for SI (selectivity index), PRRSV: CC50/IC50; for IC50: Porcine reproductive and respiratory syndrome virus, MARC145, 72 h, Marc-145 cells, 100 TCID50/ml PRRSV, three days after treatment, read-out: PRRSV infection inhibition concentration IC50
# NDV = experiment: microbe, parasite or virus in culture; assay type: cell-based, Avian Newcastle Disease virus; conditions: for SI (selectivity index), NDV: CC50/IC50; for IC50: read-out: NDV infection inhibition concentration IC50
# in vitro = conditions: monkey
# [3] = Cytotoxicity, MDCK cell tests; conditions: dog, MDCK cells
# Vero cell line = conditions: monkey
# [4] = test system: PEDV (G1a type, SM98 strain); experiment: PEDV infection inhibition in Vero cells (PEDV detection kit on isolated RNA); assay type: cell-based, Porcine Epidemic Diarrhea virus; conditions: for SI (selectivity index), PEDV: CC50/IC50; for IC50: Porcine epidemic diarrhea virus, 48 h, Vero cells, 200 TCID50/ml PEDV, after 2 days, read-out: PEDV infection inhibition concentration IC50
# Experimental: The next day, PEDV (G1a type, SM98 strain) of 200 TCID50/ml and inosine, xanthosine and guanosine in the dialdehyde and acyclic diol forms were treated to the cells simultaneously, and after 2 days, using commercialized Viral gene (DNA/RNA) extraction kit (iNtRON, 101410754), RNA was isolated. For the isolated RNA, using commercialized PEDV detection kit (Mediandiagnostics, NS-PED-31), the antiviral efficacy of the materials was verified.
# PRV = experiment: microbe, parasite or virus in culture; assay type: cell-based, Porcine Rotavirus; conditions: for SI (selectivity index), PRV: CC50/IC50; for IC50: Rotavirus C, Vero, 72 h, read-out: PRV infection inhibition concentration IC50
# IBV = experiment: microbe, parasite or virus in culture; assay type: cell-based, Avian Infectious Bronchitis virus; conditions: for IC50: read-out: IBV infection inhibition concentration IC50; for SI (selectivity index), IBV: CC50/IC50
# BRV = BRV infection inhibition in MDBK cells (RT-qPCR); assay type: cell-based, Bovine Rotavirus; conditions: for SI (selectivity index), BRV: CC50/IC50; for IC50: Rotavirus A, 96 h, MDBK cells, 200 TCID50/well BRV, after 4 days, read-out: BRV infection inhibition concentration IC50
# Experimental: The next day, BRV of 200 TCID50/well and inosine, xanthosine and guanosine in the dialdehyde and acyclic diol forms were treated to the cells simultaneously, and after 4 days, using commercialized Viral gene (DNA/RNA) extraction kit (iNtRON, 101410754), RNA was isolated.
# For the isolated RNA, using BRV-specific primers (F-[…] , R-[…] ) and realtime RT-qPCR experimental method (95° C., 10 minutes 1 cycle, 95° C., 15 seconds, 60° C., 15 seconds, 72° C., 20 seconds 40 cycles), the antiviral efficacy of the materials was confirmed.
# [5] = test system: Swine Influenza virus (SIV); experiment: organism not typed; assay type: cell-based; conditions: for SI (selectivity index), SIV: CC50/IC50; for IC50: MDCK, 96 h, read-out: SIV infection inhibition concentration IC50
# [6] = Cytotoxicity (WST-1 / DAPI staining), PRRSV test cells; conditions: monkey, Marc-145 cells (monkey kidney)
# [7] = Cytotoxicity, PK15 cell test; conditions: pig, PK15 cells
# MDCK cell line = experiment: Cytotoxicity, MDCK cell tests; conditions: read-out: CC50 (Table 10, CPV); cytotoxicity
# MDBK cell line = experiment: Cytotoxicity, MDBK cell tests; conditions: read-out: CC50 (Table 9, BRV); cytotoxicity
# BVDV = BVDV infection inhibition in MDBK cells (RT-qPCR); assay type: cell-based, Bovine Viral Diarrhea virus
# Experimental: The next day, BVDV of 200 TCID50/well and inosine, xanthosine and guanosine in the dialdehyde and acyclic diol forms were treated to the cells simultaneously, and after 4 days, using commercialized Viral gene (DNA/RNA) extraction kit (iNtRON, 101410754), RNA was isolated.
# For the isolated RNA, using BVDV-specific primers (F-[…] , R-[…] ) and realtime RT-qPCR experimental method (94° C., 10 minutes 1 cycle, 94° C., 10 seconds, 53° C., 20 seconds, 72° C., 30 seconds 35 cycles), the antiviral efficacy of the materials was verified.
# [8] = avian paramyxovirus 1, Vero, 72 h
Molecule,CC50 [1] [µM],"SI (selectivity index), PCV2 (PCV2)",IC50 (PCV2) [µM],"SI (selectivity index), PRRSV [2]",IC50 [2] [µM],"SI (selectivity index), NDV (NDV)",IC50 (NDV; [8]) [µM],CC50 (in vitro) [µM],CC50 [3] [µM],CC50 (Vero cell line) [µM],"SI (selectivity index), PEDV [4]",IC50 [4] [µM],"SI (selectivity index), PRV (PRV)",IC50 (PRV) [µM],"SI (selectivity index), BRV (BRV)",IC50 (BRV) [µM],"SI (selectivity index), SIV [5]",IC50 [5] [µM],CC50 [6] [µM],CC50 [7] [µM],also measured
"Nc1nc2c(ncn2[C@@H](CO)OC(CO)CO)c(=O)[nH]1 [Acyclic diol-guanosine, acyclic diol form of guanosine]",> 10000,>4.3,2330,>17.5,458,>1.5,6710,> 10000,> 10000,> 10000,>5.6,1780,>2.9,3400,>5.7,1760,>2.1,4820,> 8000,> 10000,"inhibition at 8000 µM (CPV; Canine parvovirus, MDCK, at 8000 μM, read-out: CPV infection inhibition efficacy): 18%; CPV virus titer reduction efficacy (CPV; at 8000 μM): ≥ 1 log10; IC50 (IBV; Avian coronavirus, Vero, 96 h): 1780 µM; SI (selectivity index), IBV (IBV): >5.6"
"O=c1[nH]cnc2c1ncn2[C@@H](CO)OC(CO)CO [Acyclic diol-inosine, acyclic diol form of inosine]",> 10000,>12.9,776,>17.6,454,>2.3,4440,> 10000,> 10000,> 10000,>3.6,2770,>3.5,2830,>5.2,1930,>1.6,6190,> 8000,> 10000,"SI (selectivity index), CPV (CPV): >4.6; IC50 (CPV; Canine parvovirus): 2190 µM; CC50 (MDCK cell line): > 10000 µM; IC50 (IBV; Avian coronavirus, Vero, 96 h): 2660 µM; SI (selectivity index), IBV (IBV): >3.8"
"O=c1[nH]c(=O)c2ncn([C@@H](CO)OC(CO)CO)c2[nH]1 [Acyclic diol-xanthosine, acyclic diol form of xanthosine]",> 10000,>10.1,995,>20,400,,,> 10000,> 10000,> 10000,>4.4,2300,>2.9,3420,>6.4,1560,>1.5,6690,> 8000,> 10000,"SI (selectivity index), CPV (CPV): >4.6; IC50 (CPV; Canine parvovirus): 2200 µM; inhibition at 8000 µM (NDV; avian paramyxovirus 1, Vero, read-out: NDV infection inhibition efficacy): 39.4%; CC50 (MDCK cell line): > 10000 µM"
"O=C[C@@H](CO)O[C@H](C=O)n1cnc2c(=O)[nH]cnc21 [Dialdehyde-inosine, dialdehyde form of inosine]",> 10000,>12.2,817,>105.3,95,>21.3,469,> 10000,> 10000,> 10000,>22.3,448,>103.5,96.6,>93.8,107,>18.1,554,> 10000,> 10000,"SI (selectivity index), CPV (CPV): >5.9; IC50 (CPV; Canine parvovirus): 1690 µM; CC50 (MDBK cell line): > 10000 µM; CC50 (MDCK cell line): > 10000 µM; IC50 (IBV; Avian coronavirus, Vero, 96 h): 76.4 µM; SI (selectivity index), IBV (IBV): >130; IC50 (BVDV; Bovine viral diarrhea virus isolates and strains, 96 h, MDBK cells, 200 TCID50/well BVDV, after 4 days, read-out: BVDV infection inhibition concentration IC50): 110 µM; SI (selectivity index), BVDV (BVDV; CC50/IC50): >90.8"
dialdehyde form of inosine [Dialdehyde-inosine],,,,,,,,,,,,,,,,,,,,,"IC50 (NDV; Vero cells, 200 TCID50/well NDV, after 3 days): 469 µM; IC50 (IBV; Vero cells, 200 TCID50/well IBV, after 4 days): 76.4 µM"
